What was measured:
Assay type in all cases: cell-based
[1] = test system: murine T-ALL cells; test: Silvestrol effect on murine T-ALL cells with engineered genetic lesions; details: cells expressing Akt, mutant IL7R, eIF4E or shRNA against Pten
[2] = test system: GQ construct; test: Luciferase reporter with four 12-mer motifs (GQs) vs random control 5'UTR; details: 25 nM, 24 hours
Method: Luciferase assays. Four tandem repeats of the (CGG)4 12-mer motif (GQs) or random sequence matched for length and GC content (random) were cloned into the 5′UTR of Renilla luciferase plasmid pGL4.73. Empty firefly luciferase plasmid pGL4.13 or HCV-IRES firefly were used as internal controls. Luciferase assays were performed using Dual-Luciferase Reporter Assay System (Promega E1960) following the manufacturer's instructions. GQs sequence:
Next, directly testing the translational effect of the 12-mer sequence motif was sought. Briefly, a luciferase reporter system was constructed to directly compare four 12-mer motifs in tandem reflecting the common occurrence of multiple motifs in sensitive mRNAs (GQ construct) to a random sequence of equal length and GC content (control construct) and using an IRES-driven firefly luciferase as an internal control (FIG. 4E). […] The RNA helicases DHX9 and DHX36 have been implicated in resolving G-quadruplex structures (Booy et al., 2012; Chakraborty and Grosse, 2011), however predominant expression was found of eIF4A in T-ALL (FIG. 4G) (Van Vlierberghe et al., 2011). Further direct testing was done of the effect of RNAi-mediated eIF4A knockdown in the same assay and a striking decrease in the translation from the GQ reporter observed, with little effect on the control sequence (FIG. 4H/I). […]

[3] = test system: human T-ALL lines; test: mRNA levels of target genes (real-time quantitative PCR); details: 25 nM
Method: Real-Time Quantitative PCR. Total RNA was extracted using AllPrep DNA/RNA/Protein Mini Kit (Qiagen 80004). Normal CD3+ T-cell RNA mixed from healthy donors was purchased from Miltenyi Biotec (130-093-164). cDNA was made using SuperScript III First-Strand (Invitrogen 18080-400). Analysis was performed by ΔΔCt. Applied Biosystems Taqman GeneExpression Assays: human Myc Hs00153408_m1, hsa-miR-19b RT and TM 396, Rnu6b RT and TM 001093, and mouse Myc Mm00487804_m1.
Given the complexity of the RF data analysis, it was important to directly confirm loss of expression for at least some of these proteins. Briefly, immunoblots on JURKAT and KOPT-K1 cells treated with silvestrol (25 nM) and loaded with equal amounts of total protein confirmed dramatic loss of MYC, NOTCH1, BCL2, and CCND3 proteins (FIG. 6A). The effect on MYC was especially striking, it was dose dependent (FIG. 6B), lasted for 48 h, and was also achieved in xenografts in vivo (Figure S6A-B). […] As expected, ACTIN, TUBULIN, and GAPDH were not affected (FIG. 6A). […] The small and significant increase in MYC mRNA levels might be consistent with prior reports of a MYC auto-regulatory mechanism (Penn et al., 1990a; Penn et al., 1990b) (FIG. 6C).
FIG. 6 depicts validation of selected silvestrol targets. A) Immunoblots of lysates from human T-ALL lines treated with silvestrol (25 nM) and probed as indicated. […]

[4] = test system: BE(2)C; test: Silvestrol in neuroblastoma cell lines in vitro: BE(2)C; details: Homo sapiens; BE(2)C cells, N-MYC
Method: The effect of silvestrol on several neuroblastoma cell lines was evaluated.

## COC(=O)[C@H]1[C@@H](O)[C@@]2(O)c3c(OC)cc(O[C@@H]4O[C@@H]([C@H](O)CO)CO[C@H]4OC)cc3O[C@@]2(c2ccc(OC)cc2)[C@@H]1c1ccccc1 [silvestrol]
[1]
  sensitivity of murine T-ALL cells: no significant difference in sensitivity
[2]; normalized to IRES firefly
  translation of the GQ construct: reduced the translation
[2]; random sequence control construct
  translation of the control luciferase: did not reduce the translation
[3]
  corresponding mRNA expression: no decrease
[4]
  IC50: 47.8 nM
